Data on 22 compounds can be found in patent US8017612B2, “Piperazine compound and use thereof as a HCV polymerase inhibitor” (priority 2006, dated 2011).

Counter-ions that a name gives are not always drawn.

In assay [1] the target is T1, HCV polymerase (NS5B) type 1b (Hepatitis C virus genotype 1b, UniProt P26663).
T1 construct: a region encoding NS5B (J Virol 1991 March, 65(3), 1105-13, 544 amino acids after deletion of 47 amino acids on the C-terminal); 6xHis (C); made in house; host or cells: Escherichia coli
The experiment in a line: Assay of enzyme (HCV polymerase) inhibitory activity, type 1b enzyme. It counts as biochemical, HCV BK strain (type 1b). Particulars: HCV polymerase inhibitory activity (IC50), 1b, type 1b enzyme 0.5 μg/ml, 25° C., 60 min. Put shortly:
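Rxn: NS5B 1b (BK, ΔC47, His6) 0.5 μg/ml; substrate RNA 5 μg/ml; ATP/GTP/CTP 50 μM, UTP 2 μM + [5,6-3H]UTP; 20 mM Tris pH 7.5, 5 mM MgCl2, 50 mM NaCl, 1 mM EDTA/DTT. 25 °C, 60 min. Stop with TCA/pyrophosphate, filter, scintillation count; IC50 vs. untreated.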

In assay [2] the target is T2, HCV polymerase (NS5B) type 1a (Hepatitis C virus genotype 1a, UniProt P26664).
T2 construct: made in house; host or cells: Escherichia coli (by the 'similar method' of the 1b enzyme)
The assay is described as follows: Assay of enzyme (HCV polymerase) inhibitory activity, type 1a enzyme. It counts as biochemical, HCV type 1a (cloned from the blood of patients). Particulars: HCV polymerase inhibitory activity (IC50), 1a, type 1a enzyme 1.5 μg/ml, 25° C., 60 min. Put shortly: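 NS5B Δ47 C-term His6 (type 1a, 1.5 μg/ml); substrate RNA 5 μg/ml; ATP/GTP/CTP 50 μM, UTP 2 μM + [5,6-3H]UTP; Tris pH 7.5, MgCl2 5 mM; 25° C, 60 min. TCA/pyrophosphate stop, GF/B filter, scintillation. IC50 vs no-compound control.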

As for `CCC(F)(F)c1ccc(CNC(=O)[C@H]2CN(c3cnc(CN)c(N)n3)CCN2S(=O)(=O)c2ccc(OC(F)(F)F)cc2)cc1` [Example 638, (R)-6′-amino-5′-aminomethyl-4-(4-trifluoromethoxy-benzenesulfonyl)-3,4,5,6-tetrahydro-2H-[1,2′]bipyrazinyl-3-carboxylic acid 4-(1,1-difluoro-propyl)-benzylamide], the IC50 in assay [1] and in assay [2] was < 100 nM in each case.
With `O=C(NCc1nc2ccccc2o1)[C@H]1CN(c2cnc3cncnc3n2)CCN1S(=O)(=O)c1ccc(OC(F)(F)F)cc1` [Example 639, (R)-4-pteridin-7-yl-1-(4-trifluoromethoxy-benzenesulfonyl)-piperazine-2-carboxylic acid (benzoxazol-2-ylmethyl)-amide], the concentration for half-maximal inhibition (IC50) – broadly, the point on the concentration scale where inhibition reaches its midpoint – in assay [1] is 100 to 1000 nM; in assay [2], > 1000 nM.
In the case of `CCC(F)(F)c1ccc(CNC(=O)[C@H]2CN(c3nc4nn[nH]c(=O)c4s3)CCN2S(=O)(=O)c2ccc(OC(F)(F)F)cc2)cc1` [Example 640, (R)-4-(4-oxo-3,4-dihydro-thiazolo[4,5-d][1,2,3]triazin-6-yl)-1-(4-trifluoromethoxy-benzenesulfonyl)-piperazine-2-carboxylic acid 4-(1,1-difluoro-propyl)-benzylamide], the concentration for half-maximal inhibition (IC50) in assay [1] and in assay [2] was < 100 nM in each case.
In the case of `CC(=O)N1CCN(S(=O)(=O)c2ccc(OC(F)(F)F)cc2)[C@@H](C(=O)NCc2ccc(C(C)(C)C#N)cc2)C1` [Example 641, (R)-4-acetyl-1-(4-trifluoromethoxy-benzenesulfonyl)-piperazine-2-carboxylic acid 4-(cyano-dimethyl-methyl)-benzylamide], the IC50 in assay [1] and in assay [2] was 100 to 1000 nM throughout.
`CC(=O)N1CCN(S(=O)(=O)c2ccc(OC(F)(F)F)cc2)[C@@H](C(=O)NCc2ccccc2-c2ccccc2)C1` [Example 642, (R)-4-acetyl-1-(4-trifluoromethoxy-benzenesulfonyl)-piperazine-2-carboxylic acid (biphenyl-2-ylmethyl)-amide]: the half-inhibitory concentration (IC50) in assay [1] and in assay [2] was > 1000 nM throughout.
In the case of `CC(=O)N1CCN(S(=O)(=O)c2ccc(OC(F)(F)F)cc2)[C@@H](C(=O)NCC2CCCCC2)C1` [Example 643, (R)-4-acetyl-1-(4-trifluoromethoxy-benzenesulfonyl)-piperazine-2-carboxylic acid cyclohexylmethyl-amide], the IC50 in assay [1] and in assay [2] was > 1000 nM throughout.
For `CC(=O)N1CCN(S(=O)(=O)c2ccc(OC(F)(F)F)cc2)[C@@H](C(=O)NCC2CCN(C(=O)OC(C)(C)C)CC2)C1` [Example 644, 4-({[(R)-4-acetyl-1-(4-trifluoromethoxy-benzenesulfonyl)-piperazine-2-carbonyl]-amino}-methyl)-piperidine-1-carboxylic acid tert-butyl ester], the IC50 in assay [1] and in assay [2] was > 1000 nM each time.
For the compound `COc1ccc(CNC(=O)[C@H]2CN(C(C)=O)CCN2S(=O)(=O)c2ccc(OC(F)(F)F)cc2)cc1O` [Example 645, (R)-4-acetyl-1-(4-trifluoromethoxy-benzenesulfonyl)-piperazine-2-carboxylic acid 3-hydroxy-4-methoxy-benzylamide], the IC50 in assay [1] and in assay [2] was > 1000 nM in each case.
Regarding `CCCc1ccc(CNC(=O)[C@H]2CN(C(C)=O)CCN2S(=O)(=O)c2ccc(OC(F)(F)F)cc2)c(=O)[nH]1` [Example 646, (R)-4-acetyl-1-(4-trifluoromethoxy-benzenesulfonyl)-piperazine-2-carboxylic acid (2-oxo-6-propyl-1,2-dihydro-pyridin-3-ylmethyl)-amide], the IC50 in assay [1] and in assay [2] was > 1000 nM throughout.
Regarding `CCC(F)(F)c1ccc(CNC(=O)[C@H]2CN(c3nc4nsnc4nc3O)CCN2S(=O)(=O)c2ccc(OC(F)(F)F)cc2)cc1` [Example 647, (R)-4-(6-hydroxy-[1,2,5]thiadiazolo[3,4-b]pyrazin-5-yl)-1-(4-trifluoromethoxy-benzenesulfonyl)-piperazine-2-carboxylic acid 4-(1,1-difluoro-propyl)-benzylamide], the half-maximal inhibitory concentration (IC50) was 100 to 1000 nM in assay [1] and > 1000 nM in assay [2].
As for `CCC(F)(F)c1ccc(CNC(=O)[C@H]2CN(c3cnc4cnccc4n3)CCN2S(=O)(=O)c2ccc(OC(F)(F)F)cc2)cc1` [Example 648, (R)-4-pyrido[3,4-b]pyrazin-2-yl-1-(4-trifluoromethoxy-benzenesulfonyl)-piperazine-2-carboxylic acid 4-(1,1-difluoro-propyl)-benzylamide], the IC50 in assay [1] and in assay [2] was < 100 nM in each case.
Regarding `COc1nc(CNC(=O)[C@H]2CN(C(C)=O)CCN2S(=O)(=O)c2ccc(OC(F)(F)F)cc2)ccc1C` [Example 649, (R)-4-acetyl-1-(4-trifluoromethoxy-benzenesulfonyl)-piperazine-2-carboxylic acid (6-methoxy-5-methyl-pyridin-2-ylmethyl)-amide], the concentration for half-maximal inhibition (IC50) in assay [1] and in assay [2] was > 1000 nM in each case.
On to `CCC(F)(F)c1ccc(CNC(=O)[C@H]2CN(c3cnc4c(n3)NS(=O)(=O)NC4)CCN2S(=O)(=O)c2ccc(OC(F)(F)F)cc2)cc1` [Example 650, (R)-4-(2,2-dioxo-1,2,3,4-tetrahydro-2λ^6-pyrazino[2,3-c][1,2,6]thiadiazin-7-yl)-1-(4-trifluoromethoxy-benzenesulfonyl)-piperazine-2-carboxylic acid 4-(1,1-difluoro-propyl)-benzylamide], for which the concentration for half-maximal inhibition (IC50) in assay [1] is < 100 nM; in assay [2] it was 100 to 1000 nM.
The matching figures for `CCOc1ccc(CNC(=O)[C@H]2CN(c3cnc4cncnc4n3)CCN2S(=O)(=O)c2ccc(OC(F)(F)F)cc2)cc1` [Example 651, (R)-4-pteridin-7-yl-1-(4-trifluoromethoxy-benzenesulfonyl)-piperazine-2-carboxylic acid 4-ethoxy-benzylamide]: < 100 nM and < 100 nM.
On to `O=C(NCc1ccc(-c2cccs2)cc1)[C@H]1CN(c2cnc3cncnc3n2)CCN1S(=O)(=O)c1ccc(OC(F)(F)F)cc1` [Example 652, (R)-4-pteridin-7-yl-1-(4-trifluoromethoxy-benzenesulfonyl)-piperazine-2-carboxylic acid 4-thiophen-2-yl-benzylamide], for which the IC50 in assay [1] and in assay [2] was < 100 nM in each case.
In the case of `O=C(NCc1ccc(Br)cc1)[C@H]1CN(c2cnc3cncnc3n2)CCN1S(=O)(=O)c1ccc(OC(F)(F)F)cc1` [Example 653, (R)-4-pteridin-7-yl-1-(4-trifluoromethoxy-benzenesulfonyl)-piperazine-2-carboxylic acid 4-bromo-benzylamide], the IC50 in assay [1] and in assay [2] was < 100 nM each time.
In the case of `CC(=O)N1CCN(S(=O)(=O)c2ccc(OC(F)(F)F)cc2)[C@@H](C(=O)NCC2CCNCC2)C1` [Example 654, (R)-4-acetyl-1-(4-trifluoromethoxy-benzenesulfonyl)-piperazine-2-carboxylic acid (piperidin-4-ylmethyl)-amide hydrochloride], the 50% inhibitory concentration (IC50) in assay [1] and in assay [2] was > 1000 nM throughout.
In the case of `CC(=O)N1CCN(S(=O)(=O)c2ccc(OC(F)(F)F)cc2)[C@@H](C(=O)NCc2ccc(Br)cc2)C1` [Example 655, (R)-4-acetyl-1-(4-trifluoromethoxy-benzenesulfonyl)-piperazine-2-carboxylic acid 4-bromo-benzylamide], the IC50 in assay [1] and in assay [2] was 100 to 1000 nM in each case.
As to `O=C(NCc1ccc(C2CC2)cc1)[C@H]1CN(c2cnc3cncnc3n2)CCN1S(=O)(=O)c1ccc(OC(F)(F)F)cc1` [Example 656, (R)-4-pteridin-7-yl-1-(4-trifluoromethoxy-benzenesulfonyl)-piperazine-2-carboxylic acid 4-cyclopropyl-benzylamide], the IC50 in assay [1] and in assay [2] was < 100 nM each time.
In the case of `COCc1ccc(CNC(=O)[C@H]2CN(c3cnc4cncnc4n3)CCN2S(=O)(=O)c2ccc(OC(F)(F)F)cc2)cc1` [Example 657, (R)-4-pteridin-7-yl-1-(4-trifluoromethoxy-benzenesulfonyl)-piperazine-2-carboxylic acid 4-methoxymethyl-benzylamide], the IC50 in assay [1] and in assay [2] was < 100 nM each time.
Consider `COc1ccc(CNC(=O)[C@H]2CN(c3cnc4cncnc4n3)CCN2S(=O)(=O)c2ccc(OC(F)(F)F)cc2)cc1` [Example 658, (R)-4-pteridin-7-yl-1-(4-trifluoromethoxy-benzenesulfonyl)-piperazine-2-carboxylic acid 4-methoxy-benzylamide], for which the IC50 in assay [1] and in assay [2] was < 100 nM in each case.
As to `O=C(NCc1ccc(-c2cccs2)s1)[C@H]1CN(c2cnc3cncnc3n2)CCN1S(=O)(=O)c1ccc(OC(F)(F)F)cc1` [Example 659, (R)-4-pteridin-7-yl-1-(4-trifluoromethoxy-benzenesulfonyl)-piperazine-2-carboxylic acid ([2,2′]bithiophenyl-5-ylmethyl)-amide], the half-inhibitory concentration (IC50) in assay [1] and in assay [2] was < 100 nM in each case.
